Data: US12559504B2, “Benzotriazole derivative” (UBE CORPORATION, priority 2019, dated 2026)

Experiments:
NQO1 [1] = assay: NQO1 expression induction test in mouse kidney (single administration); assay type: in vivo; details: Mus musculus, po, 6 h, BALB/c mouse kidney, 6 hours after administration, ratio to control group
How it was run: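 Female BALB/c mice received a single oral dose of compound in 0.5% methylcellulose, with untreated mice as controls. Six hours later, left-kidney NQO1 mRNA was measured by SYBR real-time RT-PCR normalised to GAPDH. Induction was expressed as the ratio of mean treated to mean control expression.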

NQO1 [2] = assay: NQO1 enzyme induction test (in vitro) in Hepa1c1c7 cells; assay type: cell-based; details: Mus musculus, Hepa-1c1c7, 48 h, concentration to elevate the NQO1 activity by 1.5 times, about 48 hours, read-out: EC150
Description: Each NQO1 assay was carried out by modifying a known method (Anal Biochem 1998; 169: 328-, Methods Enzymol 2004; 382: 243-). Hepa1c1c7 cells (mouse hepatocyte line manufacture by DS Pharma Biomedical Co., Ltd., REF. No. 95090613) were cultured (5% CO2, 37° C.). The cells were cultured in MEMα (manufactured by FUJIFILM Wako Pure Chemical Corporation, REF. 135-15175) medium comprising 10% FBS (manufactured by GIBCO, REF. 10082) and […]/streptomycin/amphotericin B (manufactured by GIBCO, REF. 15240), and dispensed into a 96 well plate (manufactured by Costar, REF. 3610) at 2.0×10^3 cells/well. On the next day, test compound (final concentration of […]: 0.1%) dissolved into DMSO (manufactured by FUJIFILM Wako Pure Chemical Corporation, REF. 043-07216) was added to each well, and the plate was further cultured for about 48 hours.
A cell lysate manufactured by Cell signaling Technology, Inc. (REF. 9803) with the addition of a Protease Inhibitor manufactured by Roche Diagnostics K.K. (REF. 11-873580001) was used. A reaction solution (which is a solution comprising trishydrochloric acid (25 mM), albumin […], Tween-20 (0.01%), glucose-6-phosphate dehydrogenase (2 U/mL), flavin-adenine dinucleotide (5 μM), glucose-6-phosphate (1 μM), nicotinamide adenine dinucleotide phosphate (30 μM), 3-(4,5-dimethyl-2-thiazolyl)-2,5-diphenyltetrazolium bromide (MTT) (0.03%), and menadione (50 μM)), and a stop solution (which is a solution comprising dicumarol (0.3 mM) and potassium dihydrogen phosphate (5 mM), pH 7.4) were prepared. After the medium was removed, cell lysate (50 μL) was added thereto, and the resulting mixture was shaken at room temperature for 20 minutes. The reaction solution (200 μL) was added thereto, and the resulting mixture was left to stand at room temperature for 5 minutes. The stop solution (50 μL) was added thereto, and absorbance at 540 nm (reference 750 nm) was measured.
Cell number was measured by Cell Titer Glo assay (manufactured by Promega Corporation, REF. G9242) by using another plate prepared according to the same conditions as those described above, and correction of absorbance was carried out. The test result was analyzed by Excel, and the EC150 value which is the concentration to elevate the NQO1 activity by 1.5 times was calculated.

[3] = molecular target: T1, GST fusion human Keap1 (amino acid residue: 325-624) protein (Homo sapiens, UniProt Q14145); assay: Keap1-Nrf2 binding inhibition test (fluorescence polarization); details: compound concentration of 100 nM; read-out: inhibition rate
T1 construct: GST fusion human Keap1 (amino acid residue: 325-624) protein; purchased Protein tech Ag0779
How it was run: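 Fluorescence polarization with FITC-labelled Nrf2 peptide (FITC-Ahx-LDEETGEFL-NH2) and GST-human Keap1 (325-624) in 20 mM Tris pH 7.5, 150 mM NaCl, 0.05% Tween 20, 5 mM DTT, BSA; 30 min at room temperature, ex 482/em 530 nm. Percent inhibition at 100 nM compound, Keap1-free wells = 100%.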

[4] = Metabolism test using human liver microsome fractions; assay type: in vitro ADME; details: human liver microsomes, test compound 10 μmol/L, NADPH and UDP-glucuronic acid, 37° C.
How it was run: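 Compound depletion at 10 μmol/L final, 37 °C, followed by UV-HPLC of acetonitrile-quenched aliquots taken 0, 5, 10, 15, 20, 30 min; incubations contained microsomes (1 mg protein, human or monkey) with NADPH and UDPGA cofactors. Rate = slope over linear range.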

T1 sequence (Q14145 325-624): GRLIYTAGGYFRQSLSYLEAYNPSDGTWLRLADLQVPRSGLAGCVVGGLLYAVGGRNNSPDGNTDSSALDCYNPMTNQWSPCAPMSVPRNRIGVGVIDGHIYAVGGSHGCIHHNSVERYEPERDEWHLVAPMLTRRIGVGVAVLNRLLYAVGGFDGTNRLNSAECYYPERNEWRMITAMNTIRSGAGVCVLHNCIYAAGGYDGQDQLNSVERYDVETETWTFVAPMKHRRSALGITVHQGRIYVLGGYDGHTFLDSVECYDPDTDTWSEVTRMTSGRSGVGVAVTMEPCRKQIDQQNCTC

In the case of CC[C@@H]1CN(Cc2cc(C(c3ccc4c(nnn4C)c3C)C(C)(C)C(=O)O)ccc2C)Cc2ccccc2O1 (single isomer, unassigned) [Example C1, reference compound], the fold induction at 10 mg/kg (NQO1 [1]; Dose 10 mg/kg) is reported as at most 3, the EC (1.5-fold NQO1 activity) (NQO1 [2]) is reported as 0.005 to 0.05 µM and the inhibition at 0.1 µM [3] is reported as at least 50%. For the same compound, the Human metabolic rate [4] was “C (150≤metabolic rate<200 pmol/min/mg protein)”.
Compound CC[C@@H]1CN(Cc2cc(C(c3ccc4c(nnn4C)c3C)C(C)(C)C(=O)O)ccc2C)Cc2cc3c(cc2O1)OC(F)(F)O3 (stereo partly drawn) [Example 1-(b), 3-(1,4-dimethyl-1H-benzo[d][1,2,3]triazol-5-yl)-3-(3-(((R)-6-ethyl-2,2-difluoro-6,7-dihydro-[1,3]dioxolo[4′,5′:4,5]benzo[1,2-f][1,4]oxazepin-8(9H)-yl)methyl)-4-methylphenyl)-2,2-dimethylpropanoic Acid] has a fold induction at 30 mg/kg (NQO1 [1]) of 3 to 6, an EC (1.5-fold NQO1 activity) (NQO1 [2]) of 0.0005 to 0.005 µM and an inhibition at 0.1 µM [3] of at least 50%. The Human metabolic rate [4] was “C (150≤metabolic rate<200 pmol/min/mg protein)”.
For CC[C@@H]1CN(Cc2cc(C(c3ccc4c(nnn4C)c3C)C(C)(C)C(=O)O)ccc2C)Cc2ccc3c(c2O1)OC(F)(F)O3 (stereo partly drawn) [Example 2-(b), 3-(1,4-dimethyl-1H-benzo[d][1,2,3]triazol-5-yl)-3-(3-(((R)-9-ethyl-2,2-difluoro-8,9-dihydro-[1,3]dioxolo[4′,5′:3,4]benzo[1,2-f][1,4]oxazepin-7(6H)-yl)methyl)-4-methylphenyl)-2,2-dimethylpropanoic Acid], the fold induction at 30 mg/kg (NQO1 [1]) was 3 to 6, the EC (1.5-fold NQO1 activity) (NQO1 [2]) was 0.0005 to 0.005 µM and the inhibition at 0.1 µM [3] was at least 50%. For the same compound, the Human metabolic rate [4] was “A (metabolic rate<100 pmol/min/mg protein)”.
CC[C@@H]1CN(Cc2cc(C(c3ccc4c(nnn4C)c3C)C(C)(C)C(=O)O)ccc2C)Cc2cc3c(cc2O1)CCC3 (stereo partly drawn) [Example 3-(b), 3-(1,4-dimethyl-1H-benzo[d][1,2,3]triazol-5-yl)-3-(3-(((R)-2-ethyl-2,3,5,7,8,9-hexahydro-4H-indeno[5,6-f][1,4]oxazepin-4-yl)methyl)-4-methylphenyl)-2,2-dimethylpropanoic Acid] showed a fold induction at 30 mg/kg (NQO1 [1]) of over 6, an EC (1.5-fold NQO1 activity) (NQO1 [2]) of 0.005 to 0.05 µM and an inhibition at 0.1 µM [3] of at least 50%. The Human metabolic rate [4] was “C (150≤metabolic rate<200 pmol/min/mg protein)”.
Compound CC[C@@H]1CN(Cc2cc(C(c3ccc4c(nnn4C)c3C)C(C)(C)C(=O)O)ccc2C)Cc2cc3c(cc2O1)CCCC3 (stereo partly drawn) [Example 4-(b), 3-(1,4-dimethyl-1H-benzo[d][1,2,3]triazol-5-yl)-3-(3-(((R)-2-ethyl-2,3,7,8,9,10-hexahydronaphtho[2,3-f][1,4]oxazepin-4(5H)-yl)methyl)-4-methylphenyl)-2,2-dimethylpropanoic Acid] has a fold induction at 30 mg/kg (NQO1 [1]) of over 6, an EC (1.5-fold NQO1 activity) (NQO1 [2]) of 0.005 to 0.05 µM and an inhibition at 0.1 µM [3] of at least 50%. For the same compound, the Human metabolic rate [4] was “B (100≤metabolic rate<150 pmol/min/mg protein)”.
Compound CC[C@@H]1CN(Cc2cc(C(c3ccc4c(nnn4C)c3C)C(C)(C)C(=O)O)ccc2C)Cc2ccc3c(c2O1)CCC3 (stereo partly drawn) [Example 6-(b), 3-(1,4-dimethyl-1H-benzo[d][1,2,3]triazol-5-yl)-3-(3-(((R)-2-ethyl-2,3,5,8,9,10-hexahydro-4H-indeno[5,4-f][1,4]oxazepin-4-yl)methyl)-4-methylphenyl)-2,2-dimethylpropanoic Acid] has a fold induction at 30 mg/kg (NQO1 [1]) of 3 to 6, an EC (1.5-fold NQO1 activity) (NQO1 [2]) of 0.005 to 0.05 µM and an inhibition at 0.1 µM [3] of at least 50%. For the same compound, the Human metabolic rate [4] was “B (100≤metabolic rate<150 pmol/min/mg protein)”.
Compound CC[C@@H]1CN(Cc2cc(C(c3ccc4c(nnn4C)c3C)C(C)(C)C(=O)O)ccc2C)Cc2ccc3c(c2O1)CCCC3 (stereo partly drawn) [Example 7-(b), 3-(1,4-dimethyl-1H-benzo[d][1,2,3]triazol-5-yl)-3-(3-(((R)-2-ethyl-2,3,8,9,10,11-hexahydronaphtho[2,1-f][1,4]oxazepin-4(5H)-yl)methyl)-4-methylphenyl)-2,2-dimethylpropanoic Acid] has a fold induction at 30 mg/kg (NQO1 [1]) of 3 to 6, an EC (1.5-fold NQO1 activity) (NQO1 [2]) of 0.005 to 0.05 µM and an inhibition at 0.1 µM [3] of at least 50%. The Human metabolic rate [4] was “B (100≤metabolic rate<150 pmol/min/mg protein)”.
With CC[C@@H]1CN(Cc2cc(C(c3ccc4c(nnn4C)c3C)C(C)(C)C(=O)O)ccc2C)Cc2cc3ccccc3cc2O1 (stereo partly drawn) [Example 8-(b), 3-(1,4-dimethyl-1H-benzo[d][1,2,3]triazol-5-yl)-3-(3-(((R)-2-ethyl-2,3-dihydronaphtho[2,3-f][1,4]oxazepin-4(5H)-yl)methyl)-4-methylphenyl)-2,2-dimethylpropanoic Acid] the fold induction at 30 mg/kg (NQO1 [1]) was 3 to 6, the EC (1.5-fold NQO1 activity) (NQO1 [2]) was 0.0005 to 0.005 µM and the inhibition at 0.1 µM [3] was at least 50%. The Human metabolic rate [4] was “A (metabolic rate<100 pmol/min/mg protein)”.
In the case of CC[C@@H]1CN(Cc2cc(C(c3ccc4c(nnn4C)c3C)C(C)(C)C(=O)O)ccc2C)Cc2cc3ccccc3nc2O1 (stereo partly drawn) [Example 9-(b), 3-(1,4-dimethyl-1H-benzo[d][1,2,3]triazol-5-yl)-3-(3-(((R)-2-ethyl-2,3-dihydro-[1,4]oxazepino[7,6-b]quinolin-4 (5H)-yl)methyl)-4-methylphenyl)-2,2-dimethylpropanoic Acid], the fold induction at 30 mg/kg (NQO1 [1]) is reported as 3 to 6, the EC (1.5-fold NQO1 activity) (NQO1 [2]) is reported as 0.0005 to 0.005 µM and the inhibition at 0.1 µM [3] is reported as at least 50%. The Human metabolic rate [4] was “D (200≤metabolic rate<250 pmol/min/me protein)”.
Work on CC[C@@H]1CN(Cc2cc(C(c3ccc4c(nnn4C)c3C)C(C)(C)C(=O)O)ccc2C)Cc2nc3ccccc3cc2O1 (stereo partly drawn) [Example 10-(b), 3-(1,4-dimethyl-1H-benzo[d][1,2,3]triazol-5-yl)-3-(3-(((R)-2-ethyl-2,3-dihydro-[1,4]oxazepino[6,7-b]quinolin-4 (5H)-yl)methyl)-4-methylphenyl)-2,2-dimethylpropanoic Acid] yielded a fold induction at 30 mg/kg (NQO1 [1]) of over 6, an EC (1.5-fold NQO1 activity) (NQO1 [2]) of 0.0005 to 0.005 µM and an inhibition at 0.1 µM [3] of at least 50%. For the same compound, the Human metabolic rate [4] was “C (150≤metabolic rate<200 pmol/min/mg protein)”.
CC[C@@H]1CN(Cc2cc(C(c3ccc4c(nnn4C)c3C)C(C)(C)C(=O)O)ccc2C)Cc2cc3cccnc3cc2O1 (stereo partly drawn) [Example 11-(b), 3-(1,4-dimethyl-1H-benzo[d][1,2,3]triazol-5-yl)-3-(3-(((R)-2-ethyl-2,3-dihydro-[1,4]oxazepino[6,7-g]quinolin-4(5H)-yl)methyl)-4-methylphenyl)-2,2-dimethylpropanoic Acid] showed a fold induction at 30 mg/kg (NQO1 [1]) of over 6, an EC (1.5-fold NQO1 activity) (NQO1 [2]) of 0.0005 to 0.005 µM and an inhibition at 0.1 µM [3] of at least 50%. For the same compound, the Human metabolic rate [4] was “D (200≤metabolic rate<250 pmol/min/me protein)”.
CC[C@@H]1CN(Cc2cc(C(c3ccc4c(nnn4C)c3C)C(C)(C)C(=O)O)ccc2C)Cc2ccc3ccncc3c2O1 (stereo partly drawn) [Example 62, 3-(1,4-dimethyl-1H-benzo[d][1,2,3]triazol-5-yl)-3-(3-(((R)-2-ethyl-2,3-dihydro-[1,4]oxazepino[6,7-h]isoquinolin-4 (5H)-yl)methyl)-4-methylphenyl)-2,2-dimethylpropanoic Acid] showed a fold induction at 30 mg/kg (NQO1 [1]) of at most 3, an EC (1.5-fold NQO1 activity) (NQO1 [2]) of 0.0005 to 0.005 µM and an inhibition at 0.1 µM [3] of at least 50%.
Work on CC[C@@H]1CN(Cc2cc(C(c3ccc4c(nnn4C)c3C)C(C)(C)C(=O)O)ccc2C)Cc2cc(Cl)c3ccccc3c2O1 (stereo partly drawn) [Example 67-(b), 3-(3-(((R)-7-chloro-2-ethyl-2,3-dihydronaphtho[2,1-f][1,4]oxazepin-4 (5H)-yl)methyl)-4-methylphenyl)-3-(1,4-dimethyl-1H-benzo[d][1,2,3]triazol-5-yl)-2,2-dimethylpropanoic Acid] yielded a fold induction at 20 mg/kg (NQO1 [1]; Dose 20 mg/kg) of at most 3, an EC (1.5-fold NQO1 activity) (NQO1 [2]) of 0.005 to 0.05 µM and an inhibition at 0.1 µM [3] of at least 50%.
